Consider 69 molecules from US20020026053A1, “Novel 3-(substituted) -2- indolinones compounds and use thereof as inhibitors of protein kinase activity” (priority 1997, published 2002).

For this assay, the target named is T1, Met receptor (EGFR/Met chimeric cells, EMR) (Homo sapiens, UniProt P08581).
T1 construct: expressed in transfected cells; the other entry of the earlier key: EGFR (P00533, Epidermal growth factor receptor)
The assay can be described thus: Met Autophosphorylation Assay. The format is biochemical. To be noted: protocol P.130. The method in brief:
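Met phosphorylation was measured by capture ELISA. Lysates (90 μg/100 μl, HNTG plus 1 mM PMSF) from transiently transfected EGFR/Met chimera (EMR) cells were bound for 60 min at room temperature to wells holding rabbit anti-Met (C-28) on goat anti-rabbit coat. Phosphotyrosine was the read-out.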

T1 sequence (P08581 with tags, fused parts or gaps): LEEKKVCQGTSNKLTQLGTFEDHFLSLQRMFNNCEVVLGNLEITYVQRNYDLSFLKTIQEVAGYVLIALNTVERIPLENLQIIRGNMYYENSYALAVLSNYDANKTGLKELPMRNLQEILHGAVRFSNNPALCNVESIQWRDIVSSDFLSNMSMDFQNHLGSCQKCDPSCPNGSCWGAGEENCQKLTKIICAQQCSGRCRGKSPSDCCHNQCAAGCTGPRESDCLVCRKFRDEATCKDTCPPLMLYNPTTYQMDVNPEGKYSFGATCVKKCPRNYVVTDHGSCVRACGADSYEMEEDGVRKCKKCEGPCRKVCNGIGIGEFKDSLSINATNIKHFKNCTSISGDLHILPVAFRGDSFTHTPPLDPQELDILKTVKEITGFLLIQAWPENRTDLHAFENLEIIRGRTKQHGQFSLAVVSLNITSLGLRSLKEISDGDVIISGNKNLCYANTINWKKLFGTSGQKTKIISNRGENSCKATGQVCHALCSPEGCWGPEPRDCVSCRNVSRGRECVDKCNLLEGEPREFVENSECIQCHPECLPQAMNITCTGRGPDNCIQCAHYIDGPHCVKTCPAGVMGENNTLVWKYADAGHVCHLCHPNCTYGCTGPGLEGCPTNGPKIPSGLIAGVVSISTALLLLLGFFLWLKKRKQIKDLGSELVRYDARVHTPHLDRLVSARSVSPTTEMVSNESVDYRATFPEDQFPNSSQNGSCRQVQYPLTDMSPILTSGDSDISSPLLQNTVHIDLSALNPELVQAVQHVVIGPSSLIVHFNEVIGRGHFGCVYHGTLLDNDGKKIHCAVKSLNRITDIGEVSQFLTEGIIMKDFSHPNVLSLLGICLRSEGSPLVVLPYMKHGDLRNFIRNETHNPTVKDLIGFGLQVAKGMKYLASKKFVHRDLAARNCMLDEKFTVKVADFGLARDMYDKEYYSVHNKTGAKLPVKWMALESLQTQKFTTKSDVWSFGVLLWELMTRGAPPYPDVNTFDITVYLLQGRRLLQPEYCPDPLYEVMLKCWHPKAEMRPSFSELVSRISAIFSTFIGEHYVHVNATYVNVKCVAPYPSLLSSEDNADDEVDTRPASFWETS

Take `Cc1ccc(C)c(C=C2C(=O)Nc3c(Br)cc(Br)c(C)c32)c1` [10737/H07]: the “Met Kinase % Inhibition (P.130)” value is given as 51.8%. In the case of `Cc1c(Br)cc(Br)c2c1C(=Cc1ccc3ccccc3c1)C(=O)N2` [10737/H08], the “Met Kinase % Inhibition (P.130)” value was 28.0%. The value for `Cc1c(Br)cc(Br)c2c1C(=Cc1ccc(Oc3ccccc3)cc1)C(=O)N2` [10737/H09] was 38.1%; that for `Cc1c(Br)cc(Br)c2c1C(=Cc1cccc(Oc3ccc(C(C)(C)C)cc3)c1)C(=O)N2` [10737/H10] was 51.6%. With `Cc1c(Br)cc(Br)c2c1C(=Cc1cccc(Oc3cccc(C(F)(F)F)c3)c1)C(=O)N2` [10737/H11], the “Met Kinase % Inhibition (P.130)” value is reported as 31.7%. As to `Cc1ccc(Oc2cccc(C=C3C(=O)Nc4c(Br)cc(Br)cc43)c2)cc1` [10738/A02], the “Met Kinase % Inhibition (P.130)” value came out at 10.0%. The value for `O=C1Nc2c(Br)cc(Br)cc2C1=Cc1cccc(Oc2ccc(Cl)c(Cl)c2)c1` [10738/A03] was 20.7%; that for `COc1ccc(C=C2C(=O)Nc3c(Br)cc(Br)cc32)cc1O` [10738/A04] was 55.9%; that for `O=C1Nc2c(Br)cc(Br)cc2C1=Cc1cc(O)ccc1[N+](=O)[O-]` [10738/A05] was 33.1%. With `O=C1Nc2c(Br)cc(Br)cc2C1=Cc1cccc(O)c1O` [10738/A06], the “Met Kinase % Inhibition (P.130)” value was 95.8%. Then `O=C1Nc2c(Br)cc(Br)cc2C1=Cc1cc(O)cc(O)c1` [10738/A07], with 72.7%; and `O=C1Nc2c(Br)cc(Br)cc2C1=Cc1ccc(Cl)c(Cl)c1` [10738/A08], with 12.2%; and `COc1ccccc1C=C1C(=O)Nc2c(Br)cc(Br)cc21` [10738/A09], with 20.2%.

`CC(C)c1ccc(C=C2C(=O)Nc3c(Br)cc(Br)cc32)cc1` [10738/A10]: the “Met Kinase % Inhibition (P.130)” value stood at 35.7%. Then `CCCOc1ccc(C=C2C(=O)Nc3c(Br)cc(Br)cc32)cc1` [10738/A11], with 41.7%; and `Cc1ccc(Oc2cccc(C=C3C(=O)Nc4ccc(I)cc43)c2)cc1` [10738/B02], with 78.7%; and `O=C1Nc2ccc(I)cc2C1=Cc1cccc(Oc2ccc(Cl)c(Cl)c2)c1` [10738/B03], with 74.0%. `COc1ccc(C=C2C(=O)Nc3ccc(I)cc32)cc1O` [10738/B04]: the “Met Kinase % Inhibition (P.130)” value stood at 70.7%. The value for `O=C1Nc2ccc(I)cc2C1=Cc1cc(O)ccc1[N+](=O)[O-]` [10738/B05] was 67.6%; that for `O=C1Nc2ccc(I)cc2C1=Cc1cccc(O)c1O` [10738/B06] was 83.6%. `O=C1Nc2ccc(I)cc2C1=Cc1cc(O)cc(O)c1` [10738/B07]: the “Met Kinase % Inhibition (P.130)” value stood at 66.7%. `O=C1Nc2ccc(I)cc2C1=Cc1ccc(Cl)c(Cl)c1` [10738/B08]: the “Met Kinase % Inhibition (P.130)” value came out at 70.9%. Consider `COc1ccccc1C=C1C(=O)Nc2ccc(I)cc21` [10738/B09], for which the “Met Kinase % Inhibition (P.130)” value stood at 79.4%. The value for `CC(C)c1ccc(C=C2C(=O)Nc3ccc(I)cc32)cc1` [10738/B10] was 70.7%. Turning to `CCCOc1ccc(C=C2C(=O)Nc3ccc(I)cc32)cc1` [10738/B11], the “Met Kinase % Inhibition (P.130)” value is listed as 75.4%. `Cc1ccc(Oc2cccc(C=C3C(=O)Nc4ccc(Br)c(C)c43)c2)cc1` [10738/C02]: the “Met Kinase % Inhibition (P.130)” value was 4.3%. In the case of `Cc1c(Br)ccc2c1C(=Cc1cccc(Oc3ccc(Cl)c(Cl)c3)c1)C(=O)N2` [10738/C03], the “Met Kinase % Inhibition (P.130)” value is on record as 22.7%. For `COc1ccc(C=C2C(=O)Nc3ccc(Br)c(C)c32)cc1O` [10738/C04], the “Met Kinase % Inhibition (P.130)” value is recorded as 53.7%. With `Cc1c(Br)ccc2c1C(=Cc1cc(O)ccc1[N+](=O)[O-])C(=O)N2` [10738/C05], the “Met Kinase % Inhibition (P.130)” value turned out to be 34.2%.

As for `Cc1c(Br)ccc2c1C(=Cc1cccc(O)c1O)C(=O)N2` [10738/C06], the “Met Kinase % Inhibition (P.130)” value worked out at 92.2%.

Consider `Cc1c(Br)ccc2c1C(=Cc1cc(O)cc(O)c1)C(=O)N2` [10738/C07], for which the “Met Kinase % Inhibition (P.130)” value amounted to 51.2%.

`Cc1c(Br)ccc2c1C(=Cc1ccc(Cl)c(Cl)c1)C(=O)N2` [10738/C08]: the “Met Kinase % Inhibition (P.130)” value was 39.5%. Consider `COc1ccccc1C=C1C(=O)Nc2ccc(Br)c(C)c21` [10738/C09], for which the “Met Kinase % Inhibition (P.130)” value worked out at 8.9%. As to `Cc1c(Br)ccc2c1C(=Cc1ccc(C(C)C)cc1)C(=O)N2` [10738/C10], the “Met Kinase % Inhibition (P.130)” value is reported as 3.2%.

`CCCOc1ccc(C=C2C(=O)Nc3ccc(Br)c(C)c32)cc1` [10738/C11]: the “Met Kinase % Inhibition (P.130)” value came out at 12.0%.

For the molecule `CNS(=O)(=O)c1ccc2c(c1)C(=Cc1cccc(Oc3ccc(C)cc3)c1)C(=O)N2` [10738/D02], the “Met Kinase % Inhibition (P.130)” value came out at 15.6%. `CNS(=O)(=O)c1ccc2c(c1)C(=Cc1cccc(Oc3ccc(Cl)c(Cl)c3)c1)C(=O)N2` [10738/D03]: the “Met Kinase % Inhibition (P.130)” value was 16.0%.

`CNS(=O)(=O)c1ccc2c(c1)C(=Cc1ccc(OC)c(O)c1)C(=O)N2` [10738/D04]: the “Met Kinase % Inhibition (P.130)” value was determined as 32.2%. As for `CNS(=O)(=O)c1ccc2c(c1)C(=Cc1cc(O)ccc1[N+](=O)[O-])C(=O)N2` [10738/D05], the “Met Kinase % Inhibition (P.130)” value came to 42.4%. As to `CNS(=O)(=O)c1ccc2c(c1)C(=Cc1cccc(O)c1O)C(=O)N2` [10738/D06], the “Met Kinase % Inhibition (P.130)” value was 96.0%.

Turning to `CNS(=O)(=O)c1ccc2c(c1)C(=Cc1cc(O)cc(O)c1)C(=O)N2` [10738/D07], the “Met Kinase % Inhibition (P.130)” value is reported as 68.3%.

Regarding `CNS(=O)(=O)c1ccc2c(c1)C(=Cc1ccc(Cl)c(Cl)c1)C(=O)N2` [10738/D08], the “Met Kinase % Inhibition (P.130)” value came to 37.7%. `CNS(=O)(=O)c1ccc2c(c1)C(=Cc1ccccc1OC)C(=O)N2` [10738/D09]: the “Met Kinase % Inhibition (P.130)” value is on record as 22.7%. The value for `CNS(=O)(=O)c1ccc2c(c1)C(=Cc1ccc(C(C)C)cc1)C(=O)N2` [10738/D10] was 25.3%. Take `CCCOc1ccc(C=C2C(=O)Nc3ccc(S(=O)(=O)NC)cc32)cc1` [10738/D11]: the “Met Kinase % Inhibition (P.130)” value came out at 4.3%.

For the molecule `Cc1ccc(Oc2cccc(C=C3C(=O)Nc4ccc(S(=O)(=O)Nc5ccc(C(F)(F)F)cc5)cc43)c2)cc1` [10738/E02], the “Met Kinase % Inhibition (P.130)” value was 3.8%.

`O=C1Nc2ccc(S(=O)(=O)Nc3ccc(C(F)(F)F)cc3)cc2C1=Cc1cccc(Oc2ccc(Cl)c(Cl)c2)c1` [10738/E03]: the “Met Kinase % Inhibition (P.130)” value amounted to 21.1%. Then `COc1ccc(C=C2C(=O)Nc3ccc(S(=O)(=O)Nc4ccc(C(F)(F)F)cc4)cc32)cc1O` [10738/E04], with 64.1%; and `O=C1Nc2ccc(S(=O)(=O)Nc3ccc(C(F)(F)F)cc3)cc2C1=Cc1cc(O)ccc1[N+](=O)[O-]` [10738/E05], with 61.0%; and `O=C1Nc2ccc(S(=O)(=O)Nc3ccc(C(F)(F)F)cc3)cc2C1=Cc1cccc(O)c1O` [10738/E06], with 92.4%.

For `O=C1Nc2ccc(S(=O)(=O)Nc3ccc(C(F)(F)F)cc3)cc2C1=Cc1cc(O)cc(O)c1` [10738/E07], the “Met Kinase % Inhibition (P.130)” value is given as 89.3%. Take `O=C1Nc2ccc(S(=O)(=O)Nc3ccc(C(F)(F)F)cc3)cc2C1=Cc1ccc(Cl)c(Cl)c1` [10738/E08]: the “Met Kinase % Inhibition (P.130)” value amounted to 52.6%.

On to `COc1ccccc1C=C1C(=O)Nc2ccc(S(=O)(=O)Nc3ccc(C(F)(F)F)cc3)cc21` [10738/E09], for which the “Met Kinase % Inhibition (P.130)” value is 18.0%. As to `CC(C)c1ccc(C=C2C(=O)Nc3ccc(S(=O)(=O)Nc4ccc(C(F)(F)F)cc4)cc32)cc1` [10738/E10], the “Met Kinase % Inhibition (P.130)” value is recorded as 5.8%. `CCCOc1ccc(C=C2C(=O)Nc3ccc(S(=O)(=O)Nc4ccc(C(F)(F)F)cc4)cc32)cc1` [10738/E11]: the “Met Kinase % Inhibition (P.130)” value was determined as 11.8%. For the molecule `Cc1ccc(Oc2cccc(C=C3C(=O)Nc4ccc(S(=O)(=O)N5CCOCC5)cc43)c2)cc1` [10738/F02], the “Met Kinase % Inhibition (P.130)” value was determined as 66.1%. Turning to `O=C1Nc2ccc(S(=O)(=O)N3CCOCC3)cc2C1=Cc1cccc(Oc2ccc(Cl)c(Cl)c2)c1` [10738/F03], the “Met Kinase % Inhibition (P.130)” value amounted to 20.0%. For `COc1ccc(C=C2C(=O)Nc3ccc(S(=O)(=O)N4CCOCC4)cc32)cc1O` [10738/F04], the “Met Kinase % Inhibition (P.130)” value was 61.4%. The value for `O=C1Nc2ccc(S(=O)(=O)N3CCOCC3)cc2C1=Cc1cc(O)ccc1[N+](=O)[O-]` [10738/F05] was 33.5%; that for `O=C1Nc2ccc(S(=O)(=O)N3CCOCC3)cc2C1=Cc1cccc(O)c1O` [10738/F06] was 86.7%. In the case of `O=C1Nc2ccc(S(=O)(=O)N3CCOCC3)cc2C1=Cc1cc(O)cc(O)c1` [10738/F07], the “Met Kinase % Inhibition (P.130)” value amounted to 52.3%. Consider `O=C1Nc2ccc(S(=O)(=O)N3CCOCC3)cc2C1=Cc1ccc(Cl)c(Cl)c1` [10738/F08], for which the “Met Kinase % Inhibition (P.130)” value is given as 60.5%.

For the molecule `COc1ccccc1C=C1C(=O)Nc2ccc(S(=O)(=O)N3CCOCC3)cc21` [10738/F09], the “Met Kinase % Inhibition (P.130)” value was found to be 28.9%. In the case of `CC(C)c1ccc(C=C2C(=O)Nc3ccc(S(=O)(=O)N4CCOCC4)cc32)cc1` [10738/F10], the “Met Kinase % Inhibition (P.130)” value worked out at 47.9%. In the case of `CCCOc1ccc(C=C2C(=O)Nc3ccc(S(=O)(=O)N4CCOCC4)cc32)cc1` [10738/F11], the “Met Kinase % Inhibition (P.130)” value was found to be 52.6%. In the case of `Cc1ccc(Oc2cccc(C=C3C(=O)Nc4ccc(CCCl)cc43)c2)cc1` [10738/G02], the “Met Kinase % Inhibition (P.130)” value is reported as 16.9%.

Turning to `O=C1Nc2ccc(CCCl)cc2C1=Cc1cccc(Oc2ccc(Cl)c(Cl)c2)c1` [10738/G03], the “Met Kinase % Inhibition (P.130)” value is given as 32.8%. The value for `COc1ccc(C=C2C(=O)Nc3ccc(CCCl)cc32)cc1O` [10738/G04] was 42.6%. The value for `O=C1Nc2ccc(CCCl)cc2C1=Cc1cc(O)ccc1[N+](=O)[O-]` [10738/G05] was 27.3%.
